One assay addresses T1, M2 muscarinic receptor (Rattus norvegicus, UniProt P10980).
T1 construct: Submandibular glands and heart were isolated and placed in ice cold homogenising buffer; from tissue; host or cells: rat heart membrane homogenate
T1 sequence (P10980 1-466): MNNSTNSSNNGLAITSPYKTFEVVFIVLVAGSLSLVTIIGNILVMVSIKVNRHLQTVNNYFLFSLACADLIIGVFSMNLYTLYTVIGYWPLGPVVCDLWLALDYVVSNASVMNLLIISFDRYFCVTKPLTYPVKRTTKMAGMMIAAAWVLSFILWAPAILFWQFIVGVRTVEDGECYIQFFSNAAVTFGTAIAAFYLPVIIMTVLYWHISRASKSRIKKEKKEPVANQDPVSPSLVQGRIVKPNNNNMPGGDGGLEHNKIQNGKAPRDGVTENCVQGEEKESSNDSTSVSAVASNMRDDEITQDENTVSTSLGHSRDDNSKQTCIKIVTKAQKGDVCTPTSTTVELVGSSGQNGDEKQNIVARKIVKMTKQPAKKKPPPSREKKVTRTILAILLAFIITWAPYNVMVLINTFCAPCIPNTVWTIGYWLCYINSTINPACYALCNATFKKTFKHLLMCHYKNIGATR
The experiment in a line: Radioligand binding assay, [3H]-N-methylscopolamine, rat heart membranes.

Assay [1] concerns the target T2, M3 muscarinic receptor (Rattus norvegicus, UniProt P08483). The conditions noted are these: for Ki: read-out: Receptor Binding Assay Ki (nM) M3.
Assay [2] concerns the target T2, M3 muscarinic receptor. The assay can be described thus: biochemical.
The mark [3] stands for this setting: read-out: Receptor Binding Assay Ki (nM) M2.

Read-outs that look alike come from different tables or passages of the source.

T2 sequence (P08483 whole entry): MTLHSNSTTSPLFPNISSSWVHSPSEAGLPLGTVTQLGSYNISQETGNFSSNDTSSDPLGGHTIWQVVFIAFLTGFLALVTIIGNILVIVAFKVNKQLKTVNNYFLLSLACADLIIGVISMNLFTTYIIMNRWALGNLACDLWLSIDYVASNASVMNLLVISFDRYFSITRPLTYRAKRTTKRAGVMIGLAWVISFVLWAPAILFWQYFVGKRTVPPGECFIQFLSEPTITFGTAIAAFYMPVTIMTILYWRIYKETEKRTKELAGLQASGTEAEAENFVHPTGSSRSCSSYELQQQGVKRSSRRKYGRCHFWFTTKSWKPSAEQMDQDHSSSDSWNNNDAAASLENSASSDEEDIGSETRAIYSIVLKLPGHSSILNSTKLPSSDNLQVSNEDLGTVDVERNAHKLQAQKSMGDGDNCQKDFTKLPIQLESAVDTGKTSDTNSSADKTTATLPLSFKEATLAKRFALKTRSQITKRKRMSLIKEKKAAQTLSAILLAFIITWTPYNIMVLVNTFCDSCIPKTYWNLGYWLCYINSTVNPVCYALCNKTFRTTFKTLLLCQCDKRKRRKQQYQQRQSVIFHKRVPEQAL

By Ki is commonly meant a dissociation constant, usually derived from enzyme kinetics or from competition with a known ligand. On to “4-[(1S,5R)-2-methyl-3-azabicyclo[3.1.0]hex-3-yl]-but-2-ynyl-2-cyclohexyl-2-hydroxyphenylacetate [Compound No. 18]”, for which, on M2 muscarinic receptor (setting [3]), the Ki came to 185 nM. For the same compound, on M3 muscarinic receptor [1], the “Selectivity (M2/M3)” value is listed as 7.708 and the Ki turned out to be 24 nM.

For the compound “4-[(1S,5R)-2-methyl-3-azabicyclo[3.1.0]hex-3-yl]-but-2-ynyl-2-cyclopentyl-2-hydroxyphenylacetate [Compound No. 17]”, the figures for the Ki at M2 muscarinic receptor (setting [3]) and on M3 muscarinic receptor [1] were 142 nM and 39 nM, respectively. In addition, on M3 muscarinic receptor [1], the “Selectivity (M2/M3)” value is listed as 3.641.

In the case of `O=C(NCC#CCN1C[C@H]2C[C@H]2C1)C(O)(c1ccccc1)C1CCCCC1` (stereo partly drawn) [Compound No. 9, N-{4-[(1R, 5S)-3-azabicyclo[3.1.0]-hex-3-yl]but-2-ynyl}-2-hydroxy-2-cyclohexyl-2-phenylacetamide], the Ki at M2 muscarinic receptor came out at 3580 nM.

Turning to `O=C(NCC#CCN1C[C@H]2C[C@H]2C1)C(O)(c1ccccc1)C1CCCC1` (stereo partly drawn) [Compound No. 10, N-{4-[(1R, 5S)-3-azabicyclo[3.1.0]-hex-3-yl]but-2-ynyl}-2-hydroxy-2-cyclopentyl-2-phenylacetamide], the Ki at M2 muscarinic receptor came out at 425 nM; at M3 muscarinic receptor [2] it was 330 nM. Also, on M3 muscarinic receptor [1], the “Selectivity (M2/M3)” value stood at 1.28.

The compound `O=C(NCC#CCN1C[C@H]2C[C@H]2C1)C(O)(c1ccccc1)c1ccccc1` [Compound No. 11, N-{4-[(1R, 5S)-3-azabicyclo[3.1.0]-hex-3-yl]but-2-ynyl}-2-hydroxy-2,2-diphenylacetamide] registered a Ki at M2 muscarinic receptor of 639 nM.

In the case of `O=C(NCC#CCN1C[C@H]2C[C@H]2C1)C(O)(c1ccc(F)cc1)c1ccc(F)cc1` [Compound No. 12, N-{4-[(1R,5S)-3-azabicyclo[3.1.0]-hex-3-yl]-but-2-ynyl}2-hydroxy-bis(4-florophenyl)acetamide], the Ki at M2 muscarinic receptor stood at 736 nM.
